Experimental data: patent US8729134B2, “Aryl di-substituted propenone compounds” (Heartlink Limited, priority 2008, dated 2014)
Converted amounts (≈) assume the structure as drawn. “Also recorded” adds a separate entry of the source. Like-named read-outs stand apart in the source and are kept apart here.

Key:
[1] = system: MDA-MB-435 cells (human mammary ductal carcinoma); assay: MTT cell viability assay, MDA-MB-435 cells; assay type: cell-based; conditions: 48 hours incubation, read-out: IC50, inhibition of MDA-MB-435 cell line
Description: (§1) Compounds II-IV were compared with genistein to test the cell viability of MCF-7 cells (human, mammary, adenocarcinoma cell line) and MDA-MB-435 cells (human mammary ductal carcinoma).
(§2) Cell viability was tested using the MTT assay (Amersham). The MTT [3-(4,5-dimethylthiazol-2-yl)-2,5-diphenyltetrazolium bromide] assay, was first described by Mosmann in 1983, (J Immunol Methods. 1983 Dec. 16; 65(1-2):55-63). The assay is based on the ability of a mitochondrial dehydrogenase enzyme from viable cells to cleave the tetrazolium rings of the pale yellow MTT and form a dark blue formazan crystals which is largely impermeable to cell membranes, thus resulting in accumulation within healthy cells. Solubilisation of the cells by the addition of a detergent results in the liberation of the crystals which are then solubilized. The number of surviving cells is directly proportional to the level of the formazan product created. The colour can then be quantified using a simple colorimetric assay. The results can be read on a multi-well scanning spectrophotometer (ELISA reader).
(§3) Cells were plated at predetermined densities in 96 well plates. These were then incubated for 24 hours at 37° C. with 5%; CO2. Growth medium was then removed and replaced with 100 μl of growth medium containing various dilutions of test reagents or appropriate controls.
(§4) Plates were then incubated for a either 48 or 96 hours.
(§5) MTT reagent was then added to each well. The plates were then incubated in a 37° C./5% CO2 incubator. Detergent reagent was then added to each well. The plates were incubated overnight at 37° C./5% CO2. The absorbance was read at 570 nm.

[2] = system: SK-MEL-28 (human malignant melanoma) cell line; assay: MTT cell viability assay, SK-MEL-28 cells; assay type: cell-based; conditions: read-out: IC 50, inhibition in SK-MEL-28 cells
Description: as §2, §3, §4, §5
Compounds II, III and IV were compared with genistein to test the cell viability of SK-MEL-28 (human malignant melanoma) cell line.

[3] = system: C-33A (cervical carcinoma) cells; assay: MTT cell viability assay, C-33A cells; assay type: cell-based; conditions: Homo sapiens, 48 hours incubation, read-out: IC 50, inhibition of C-33A cells
Description: as §2, §3, §4, §5
(§6) Also, Compounds II-IV were compared with genistein to test the cell viability of SK-OV-3 (ovarian adenocarcinoma), OVCAR-3 (ovarian adenocarcinoma), and C-33A (cervical carcinoma) cell lines.

[4] = system: OVCAR-3 (ovarian adenocarcinoma) cells; assay: MTT cell viability assay, OVCAR-3 cells; assay type: cell-based; conditions: Homo sapiens, read-out: IC 50, inhibition in OVCAR-3 cells
Description: as §2, §3, §4, §5, §6

[5] = system: SK-OV-3 (ovarian adenocarcinoma) cells; assay: MTT cell viability assay, SK-OV-3 cells; assay type: cell-based; conditions: Homo sapiens, read-out: IC 50, inhibition in SK-OV-3 cells
Description: as §2, §3, §4, §5, §6

[6] = system: MCF-7 cells (human, mammary, adenocarcinoma cell line); assay: MTT cell viability assay, MCF-7 cells; assay type: cell-based; conditions: MCF7, 48 hours incubation, read-out: IC50, inhibition of MCF7 cells
Description: as §1, §2, §3, §4, §5

[7] = system: LNCaP cells (human prostate carcinoma); assay: MTT cell viability assay, LNCaP cells; assay type: cell-based; conditions: 48 hours incubation
Description: as §2, §3, §4, §5
(§7) Compounds II-IV were compared with genistein to test the cell viability of LNCaP, PC3 and DU-145 cell lines (human prostate carcinoma).

[8] = system: PC3 cells (human prostate carcinoma); assay: MTT cell viability assay, PC3 cells; assay type: cell-based; conditions: PC-3, read-out: IC 50, inhibition in PC3 cells
Description: as §2, §3, §4, §5, §7

[9] = Tolerability in the xenograft mouse model; assay type: in vivo; conditions: doses of 50, 25 and 10 mg/kg intraperitoneally for 14 days
Description: (§8) Female athymic mice (54) were implanted subcutaneously in the right hind flank with human DU145 prostate tumour cells (5×10^6). Tumour formation and growth were monitored until the tumours reached an average 25 mm^2 area (5 mm×5 mm). Mice were randomised into groups based upon tumour area (mean tumour area in individual groups ranged from 22 mm^2-33 mm^2). Compositions of Compounds II and III were prepared in a solution of 5% DMSO, 10% Tween 80 in PBS and administered intraperitoneally in a volume of 100 μl at doses of 50, 25, and 10 mg/kg to individual eight week old female Balb/c mice for 14 days. Vehicle control was 5% DMSO, 10% Tween 80 in PBS.

[10] = system: DU-145 cells (human prostate carcinoma); assay: MTT cell viability assay, DU-145 cells; assay type: cell-based; conditions: 48 hours incubation
Description: as §2, §3, §4, §5, §7

[11] = system: JAM (ovarian carcinoma) cells; assay: MTT cell viability assay, JAM cells; assay type: cell-based; conditions: for IC50: Ovarian carcinoma cell, 96 hours incubation, read-out: IC 50, inhibition of JAM cells
Description: as §2, §3, §4, §5
Compound IV was compared with genistein to test the cell viability of JAM (ovarian carcinoma) and HELA (human cervical carcinoma) cell lines.

[12] = system: B16-F1 cells (murine melanoma); assay: MTT cell viability assay, B16-F1 cells; assay type: cell-based; conditions: Mus musculus, 96 hours incubation, read-out: IC 50, inhibition of B16-F1 cells
Description: as §2, §3, §4
(§9) MTT reagent was then added to each well. The plates were then incubated in a 37° C./5% CO2 incubator. Detergent reagent was then added to each well. […] The absorbance was read at 570 nm. […]

[13] = system: AB1 cells (murine myeloma); assay: MTT cell viability assay, AB1 cells; assay type: cell-based; conditions: Mus musculus, 96 hours incubation, read-out: IC 50, inhibition of AB1 cells
Description: as §2, §3, §4, §9

[14] = system: HELA (human cervical carcinoma) cells; assay: MTT cell viability assay, HELA cells; assay type: cell-based; conditions: 96 hour incubation, read-out: IC 50, inhibition of HELA cells
Description: as §2, §3, §4, §9

[15] = system: human DU145 prostate tumour cells (xenograft); assay: Anti-tumour efficacy in DU145 xenograft mouse model; assay type: in vivo, mice
Description: The cell lines were cultured and prepared for inoculation according to standard protocols.
as §8

[16] = read-out: IC 50, inhibition of LNCaP cells
[17] = read-out: IC 50, inhibition of DU-145 cells

| IC50 [11] | IC50 [12] | IC50 [13] | SMILES | IC50 [1] | IC50 [2] | IC50 [3] | IC50 [4] | IC50 [5] | IC50 [6] | IC50 [7, 16] | IC50 [8] | tolerability / toxicity in the animals [9] | IC50 [10, 17] | further results |
| --- | --- | --- | --- | --- | --- | --- | --- | --- | --- | --- | --- | --- | --- | --- |
| 9.7 µg/mL (≈ 35.9 µM) | 4.5 µg/mL (≈ 16.7 µM) | 1.1 µg/mL (≈ 4.07 µM) | O=c1c(-c2ccc(O)cc2)coc2cc(O)cc(O)c12 [genistein, reference compound] | > 100 µM |  | 41.9 µM |  |  | 79.4 µM |  |  |  | 78.9 µM | IC50 ([7]; genistein, read-out: IC, inhibition of LNCaP cells): 59.5 µM |
|  | 1.6 µg/mL (≈ 4.87 µM) | 1.1 µg/mL (≈ 3.35 µM) | C=C(C(=O)c1ccc(OC)cc1OC)c1ccc(OC)c(OC)c1 [Compound IV, 1-(2,4-dimethoxyphenyl)-2-(3,4-dimethoxyphenyl)prop-2-en-1-one] | 6.8 µM | 3.5 µM | 2.4 µM | 16.9 µM | 27.4 µM | 6.8 µM | 6.1 µM | 8.7 µM |  |  | cytotoxic potency compared with genistein ([11]; JAM and HELA cell lines): more potent as a cytotoxic agent than genistein; IC50 ([10]; read-out: IC 50, inhibition of DU-145 cells (unit inferred)): 10.7 µM |
| 0.9 µg/mL (≈ 2.84 µM) |  |  | COc1ccc(C(=O)Cc2ccc(OC)c(OC)c2)c(OC)c1 [Compound V, 1-(2,4-dimethoxyphenyl)-2-(3,4-dimethoxyphenyl)ethanone] |  |  |  |  |  |  |  |  |  |  | IC50 [14]: 3 µg/mL (≈ 9.48 µM) |

The next lines start with the molecule.

| SMILES | IC50 [11] | IC50 [12] | IC50 [13] | IC50 [1] | IC50 [2] | IC50 [3] | IC50 [4] | IC50 [5] | IC50 [6] | IC50 [7, 16] | IC50 [8] | tolerability / toxicity in the animals [9] | IC50 [10, 17] | further results |
| --- | --- | --- | --- | --- | --- | --- | --- | --- | --- | --- | --- | --- | --- | --- |
| C=C(C(=O)c1cc(OC)c(OC)cc1OC)c1ccc(OC)c(OC)c1 [Compound III, 1-(2,4,5-trimethoxyphenyl)-2-(3,4-dimethoxyphenyl)prop-2-en-1-one] |  |  |  | 3.8 µM | 5.5 µM | 3.1 µM | 11.7 µM | 33.1 µM | 3 µM | 5 µM | 8.6 µM | neither compound resulted in unacceptable toxicity | 15 µM |  |
| C=C(C(=O)c1ccc(OC)c(OC)c1OC)c1ccc(OC)cc1 [Compound II, 1-(2,3,4-trimethoxyphenyl)-2-(4-methoxyphenyl)prop-2-en-1-one] |  |  |  | 0.6 µM | 3.5 µM | 1.8 µM | 3.3 µM | 21.5 µM | 2.2 µM | 2.3 µM | 2.7 µM | better tolerated by the animals than Compound III; also recorded: neither compound resulted in unacceptable toxicity | 4.8 µM | reduction mean tumour growth relative to the control group ([15]; 10 mg/kg intraperitoneally for 14 days, at the completion of treatment): 42%; statistical significance of tumour growth inhibition ([15]; 25 mg/kg and 10 mg/kg treatment groups, t-test P<0.05): statistically significant; tumour growth relative to control animals treated with vehicle alone (in words) ([15]; 50, 25, 10 mg/kg intraperitoneally, 14 days): caused delay in the growth of DU-145 tumours; also recorded: clearly inhibited tumour growth; anti-tumour effect, comparison between Compounds II and III ([15]; DU145 xenograft, 50, 25, 10 mg/kg): has the most anti-tumour effect; also recorded: superior anti-tumour effect in comparison with Compound III; tumour size following the cessation of treatment ([15]; after the 14 day treatment, entire study period): tumours remained smaller |
